Measurements published in the supplement of paper PMC10307832.

Columns and labels:
Experiment in all cases: relative viability (nuclei count vs DMSO), 5 days (fraction); higher = more cells survive
Sunitinib + AZD7762 = compound: CCN(CC)CCNC(=O)c1c(C)[nH]c(/C=C2\C(=O)Nc3ccc(F)cc32)c1C [Sunitinib] + NC(=O)Nc1cc(-c2cccc(F)c2)sc1C(=O)N[C@H]1CCCNC1 [AZD7762] (partner 0.2 µM)
In short: (§1)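 Relative viability equals treated-well nuclei counts divided by vehicle-well nuclei counts. Counts came from 4× images of lung cancer cell lines grown in 1536-well plates for 5 days after pin-tool dosing on the day after seeding. Dosing used one drug alone or a fixed anchor-drug dose plus five library-drug doses (not always all listed) in √10 steps, and values are medians of duplicate plates.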

Sunitinib + Decitabine = compound: CCN(CC)CCNC(=O)c1c(C)[nH]c(/C=C2\C(=O)Nc3ccc(F)cc32)c1C [Sunitinib] + Nc1ncn([C@H]2C[C@H](O)[C@@H](CO)O2)c(=O)n1 [Decitabine] (partner 2 µM)
In short: as §1

Sunitinib + Lapatinib = compound: CCN(CC)CCNC(=O)c1c(C)[nH]c(/C=C2\C(=O)Nc3ccc(F)cc32)c1C [Sunitinib] + CS(=O)(=O)CCNCc1ccc(-c2ccc3ncnc(Nc4ccc(OCc5cccc(F)c5)c(Cl)c4)c3c2)o1 [Lapatinib] (partner 2 µM)
In short: as §1

Sunitinib + Olaparib = compound: CCN(CC)CCNC(=O)c1c(C)[nH]c(/C=C2\C(=O)Nc3ccc(F)cc32)c1C [Sunitinib] + O=C(c1cc(Cc2n[nH]c(=O)c3ccccc23)ccc1F)N1CCN(C(=O)C2CC2)CC1 [Olaparib] (partner 8 µM)
In short: as §1

| Cell Line | relative viability (Sunitinib + AZD7762; first compound 0.02 µM) | relative viability (Sunitinib + AZD7762; first compound 0.06325 µM) | relative viability (Sunitinib + AZD7762; first compound 0.2 µM) | relative viability (Sunitinib + AZD7762; first compound 0.6325 µM) | relative viability (Sunitinib + AZD7762; first compound 2 µM) | relative viability (Sunitinib + Decitabine; first compound 0.02 µM) | relative viability (Sunitinib + Decitabine; first compound 0.06325 µM) | relative viability (Sunitinib + Decitabine; first compound 0.2 µM) | relative viability (Sunitinib + Decitabine; first compound 0.6325 µM) | relative viability (Sunitinib + Decitabine; first compound 2 µM) | relative viability (Sunitinib + Lapatinib; first compound 0.02 µM) | relative viability (Sunitinib + Lapatinib; first compound 0.06325 µM) | relative viability (Sunitinib + Lapatinib; first compound 0.2 µM) | relative viability (Sunitinib + Lapatinib; first compound 2 µM) | relative viability (Sunitinib + Olaparib; first compound 0.02 µM) | relative viability (Sunitinib + Olaparib; first compound 0.06325 µM) | relative viability (Sunitinib + Olaparib; first compound 0.2 µM) | relative viability (Sunitinib + Olaparib; first compound 0.6325 µM) | relative viability (Sunitinib + Olaparib; first compound 2 µM) | relative viability (Sunitinib + Lapatinib; first compound 0.6325 µM) |
| --- | --- | --- | --- | --- | --- | --- | --- | --- | --- | --- | --- | --- | --- | --- | --- | --- | --- | --- | --- | --- |
| HCC-366 | 0.241 | 0.207 | 0.379 | 0.238 | 0.216 | 0.314 | 0.361 | 0.365 | 0.313 | 0.408 | 1.04 | 1.17 | 1.33 | 1.07 | 0.343 | 0.355 | 0.482 | 0.449 | 0.42 |  |
| HCC-827 | 0.249 | 0.191 | 0.21 | 0.174 | 0.207 | 0.324 | 0.314 | 0.31 | 0.322 | 0.292 | 0.191 | 0.198 | 0.198 | 0.215 | 0.722 | 0.696 | 0.622 | 0.648 | 0.597 | 0.222 |
| HOP-62 | 0.579 | 0.675 | 0.874 | 0.688 | 0.85 | 0.22 | 0.218 | 0.252 | 0.209 | 0.239 | 0.961 | 1.09 | 1.01 | 1.1 | 0.453 | 0.374 | 0.449 | 0.472 | 0.63 | 1.01 |
| IA-LM |  |  |  |  |  |  |  |  |  |  | 0.674 | 0.917 | 0.804 | 0.947 | 0.826 | 0.973 | 0.842 |  | 0.981 | 0.81 |
| LCLC-103H | 0.808 | 0.786 | 0.89 | 0.925 | 0.851 | 0.691 | 0.798 | 0.77 | 0.709 | 0.71 |  |  |  |  | 0.69 | 0.839 | 0.787 | 0.75 | 0.817 |  |
| NCI-H441 |  | 1.25 | 1.36 | 1.24 | 1.17 | 0.271 | 0.285 | 0.266 | 0.271 | 0.317 |  |  |  |  | 0.481 | 0.557 | 0.796 | 0.659 | 0.61 |  |
| NCI-H520 |  |  |  |  |  | 0.487 | 0.499 | 0.55 | 0.577 | 0.537 | 0.786 |  | 0.964 |  | 0.395 | 0.338 | 0.314 | 0.377 | 0.335 | 0.916 |
| NCI-H522 | 0.839 |  | 0.73 | 0.848 | 0.942 | 0.594 | 0.675 | 0.735 | 0.719 | 0.717 |  |  |  |  | 0.623 | 0.574 | 0.75 | 0.616 | 0.641 |  |
| NCI-H661 |  |  |  |  |  | 0.509 | 0.578 | 0.544 | 0.56 | 0.597 | 0.433 | 0.453 | 0.527 | 0.448 | 0.716 | 0.739 | 0.733 | 0.711 | 0.773 | 0.582 |
| NCI-H1299 |  |  |  |  |  |  |  |  |  |  | 0.956 | 0.988 | 0.992 | 0.953 | 0.935 | 0.977 | 0.998 | 1.02 | 0.991 | 0.932 |
| NCI-H1563 |  |  |  |  |  |  |  |  |  |  | 0.925 | 0.988 | 1.03 | 1.05 |  |  |  |  |  | 1.09 |
| NCI-H1648 | 0.702 | 0.814 | 0.694 | 0.715 | 0.828 | 0.46 | 0.647 | 0.633 | 0.55 | 0.681 |  |  |  |  | 1.11 | 0.583 |  | 0.751 | 0.707 |  |
| NCI-H1650 |  |  |  |  |  | 0.45 | 0.379 | 0.315 | 0.475 | 0.416 | 0.559 |  | 0.769 | 0.737 | 0.744 | 0.742 | 0.822 | 0.791 | 0.738 | 0.739 |
| NCI-H1703 | 0.136 | 0.146 | 0.127 | 0.138 | 0.122 |  |  |  |  |  | 0.633 | 0.264 | 0.318 | 0.284 | 0.229 | 0.267 | 0.251 | 0.154 | 0.157 | 0.245 |
| NCI-H2009 |  |  |  |  |  | 0.349 | 0.364 | 0.371 | 0.424 | 0.373 | 0.929 | 1.34 | 0.995 | 1.18 | 0.675 | 0.739 | 0.717 | 0.799 | 0.778 |  |
| NCI-H2023 |  |  |  |  |  | 0.242 | 0.225 | 0.247 | 0.243 | 0.217 | 0.912 | 1.09 | 0.998 | 0.91 | 0.487 | 0.485 | 0.518 | 0.462 | 0.465 | 0.814 |
| NCI-H2228 |  |  |  |  |  |  |  |  |  |  | 1.04 | 1.23 | 1.13 |  | 0.608 | 0.55 | 0.98 | 0.772 | 0.544 | 1.16 |
| NCI-H2342 | 0.48 | 0.601 | 0.649 | 0.505 | 0.556 | 0.751 | 0.784 | 0.708 | 0.819 | 0.718 |  |  |  |  | 0.48 | 0.456 | 0.527 | 0.475 | 0.414 |  |
| SK-LU-1 |  |  |  |  |  | 0.571 | 0.688 | 0.635 | 0.651 | 0.603 | 0.942 | 0.853 | 1.06 | 0.809 | 0.422 | 0.494 | 0.555 | 0.491 | 0.532 | 1.02 |
| SK-MES-1 |  |  |  |  |  | 0.345 | 0.369 | 0.368 | 0.389 | 0.379 | 0.471 | 0.502 | 0.487 | 0.419 | 0.643 | 0.7 | 0.877 |  | 0.678 | 0.481 |
| SW 900 | 0.633 | 0.676 | 0.664 | 0.67 | 0.648 | 0.44 | 0.364 | 0.394 | 0.407 | 0.433 |  |  |  |  | 0.794 | 1.04 | 0.847 | 1.1 | 0.945 |  |
| SW 1573 |  |  |  |  |  | 0.403 | 0.508 | 0.556 | 0.62 | 0.554 | 1.19 | 1.3 | 1.31 |  | 0.488 | 0.56 | 0.622 | 0.522 | 0.511 | 1.14 |
| UMC-11 |  |  |  |  |  | 0.553 | 0.551 | 0.583 | 0.737 | 0.597 | 0.984 |  | 1.07 | 0.967 | 0.387 | 0.382 | 0.674 | 0.324 | 0.324 | 1.03 |
